From article PMC7400207, “It Takes Two: Dimerization Is Essential for the Broad-Spectrum Predatory and Defensive Activities of the Venom Peptide Mp1a from the Jack Jumper Ant Myrmecia pilosula” (Biomedicines, 2020)
In brackets after ≈: the same amount, converted by molar mass.

Tests used:
P. aeruginosa FADDI-PA70 = details: taken from Dekan et al.; cited from earlier work
human red blood cells = details: cited from earlier work
Description: Table 2 Summary of bioassay data for synthetic Mp1a and analogues, including effective concentration (EC50) for activation of F11 cells, concentrations that caused 50% inhibition (IC50) for inhibition of larval development of H. contortus; median lethal dose (LD50) for lethal insecticidal effects on D. melanogaster; concentrations required to induce 50% cell death (CC50) for effects on viability o | column: Hemolysis (HC50 µM) ^b

[1] = system: mouse dorsal root ganglion (DRG) cells; assay: Calcium imaging of mammalian sensory neurons; assay type: cell-based; details: 1 µM peptide, Fluo-4 calcium imaging, neuronal and non-neuronal cells
Description: Calcium imaging of a heterogenous population of mouse dorsal root ganglion (DRG) sensory neurons was performed as previously described. In brief, dorsal root ganglion (DRG) cells isolated from 4–8-week-old male C57BL/6 mice under ethics approval TRI/IMB/093/17 (University of Queensland Animal Ethics Committee, approval date 31/03/2017) were dissociated and then plated in Dulbecco’s modified Eagle’s medium (Gibco, Grand Island, NY, USA) containing 10% fetal bovine serum (FBS; Assaymatrix, Melbourne, Australia) and penicillin/streptomycin (Gibco) on a 96-well poly-D-lysine–coated culture plate (Corning, Lowell, MA, USA), and maintained overnight. Cells were loaded with Fluo-4 AM calcium indicator as per the manufacturer’s instructions (Thermo Fisher Scientific, Grand Island, NY, USA). After loading for 1 h, the dye solution was replaced with assay solution (Hanks’ balanced salt solution and 20 mM HEPES). Fluorescence corresponding to intracellular calcium ([Ca^2+]i) of typically 100–150 DRG cells per experiment was monitored in parallel using a Nikon Ti-E deconvolution inverted microscope, equipped with a Lumencor Spectra LED light source. Images were acquired at a 20× objective at one frame/s (excitation 485 nm; emission 521 nm). For each experiment, baseline fluorescence was monitored for 30 s and then a wash of assay solution was applied.

## CC[C@H](C)[C@H](N)C(=O)N[C@@H](CC(=O)O)C(=O)N[C@@H](Cc1c[nH]c2ccccc12)C(=O)N[C@@H](CCCCN)C(=O)N[C@@H](CCCCN)C(=O)N[C@H](C(=O)N[C@@H](CC(=O)O)C(=O)N[C@@H](Cc1c[nH]c2ccccc12)C(=O)N[C@@H](CCCCN)C(=O)N[C@@H](CCCCN)C(=O)N[C@H](C(=O)N[C@@H](CO)C(=O)N[C@@H](CCCCN)C(=O)N[C@@H](CCCCN)C(=O)N[C@H](C(=O)N[C@H]1CSSC[C@@H](C(=O)N[C@@H](CCCCN)C(=O)N[C@@H](CCCCN)C(=O)N[C@H](C(=O)N[C@@H](CC(C)C)C(=O)N[C@@H](CCCCN)C(=O)N[C@@H](CCC(N)=O)C(N)=O)C(C)C)NC(=O)[C@H](C(C)C)NC(=O)[C@H]([C@@H](C)O)NC(=O)[C@H](CCCCN)NC(=O)[C@H](C(C)C)NC(=O)[C@H](CC(C)C)NC(=O)[C@H](C(C)C)NC(=O)[C@@H](NC(=O)[C@@H](NC(=O)CNC(=O)[C@H](CCCCN)NC(=O)[C@H](CO)NC(=O)[C@@H](NC(=O)[C@H](CC(C)C)NC(=O)CNC(=O)[C@@H](NC(=O)[C@@H](N)CC(C)C)[C@@H](C)CC)C(C)C)[C@@H](C)O)CSSC[C@@H](C(=O)N[C@@H](CCCCN)C(=O)N[C@@H](Cc2ccccc2)C(=O)N[C@@H](CC(C)C)C(N)=O)NC(=O)[C@H](C)NC(=O)[C@H](CCCCN)NC(=O)[C@H](CC(C)C)NC(=O)[C@H](CCSC)NC(=O)[C@H](C(C)C)NC(=O)[C@H](CCCCN)NC1=O)[C@@H](C)O)C(C)C)C(C)C [Analogue 1a, ∆-myrtoxin-Mp1a]
P. aeruginosa FADDI-PA70
  MIC: 0.8 µM (≈ 4.49 µg/mL)
Human red blood cells
  Hemolysis (HC50): 2.2 µM
[1]
  Effect on [Ca2+]i of DRG cells: rapid increase in [Ca^2+]i in all cells
